Series [1] deals with K562. The series can be described thus: Induction of apoptosis in human K562 cells assessed as cell death at 10 to 20 uM incubated for 24 hrs by AnnexinV-FITC/propidium iodide staining based flow cytometric analysis. Conditions: dose 10-20 µM. The class given is functional.
In series [2] the test system is K562. As to the kind of experiment: Induction of apoptosis in human K562 cells assessed as […] incubated for 24 hrs by AnnexinV-FITC/propidium iodide staining based flow cytometric analysis (reference value: 31 +/- 0.4 %). The class given is functional. Background: A flow cytometer gives signals particle by particle.
The nature of series [3]: Drug uptake in human K562 cells at 5 uM incubated for 1 hrs by flow cytometry analysis. The class given is ADME, cell-based. Conditions: k562, 1 h.
For series [4], the system named is K562. The series can be described thus: Induction of apoptosis in human K562 cells incubated for 24 hrs by AnnexinV-FITC/propidium iodide staining based flow cytometric analysis. The class given is functional, cell-based. Conditions: K562, 24 h.
Series [5] relates to U-937. As to the kind of experiment: Induction of apoptosis in human U-937 cells incubated for 24 hrs by AnnexinV-FITC/propidium iodide staining based flow cytometric analysis. The class given is functional, cell-based. The settings on record: U-937, 24 h.
Series [6] in a line: Drug uptake in human U-937 cells at 5 uM incubated for 4 hrs by flow cytometric analysis. The class given is ADME, cell-based. The settings on record: u-937, 4 h.
A short description of series [7]: Drug uptake in human K562 cells at 5 uM incubated for 4 hrs by Hoechst 33258 staining based fluorescence microscopic analysis. The settings on record: k562, 4 h. The class given is ADME, cell-based.
Series [8] deals with K562. The series can be described thus: Induction of apoptosis in human K562 cells assessed as early apoptotic cells at 1.5625 to 25 uM incubated for 24 hrs by AnnexinV-FITC/propidium iodide staining based flow cytometric analysis. The class given is functional, cell-based. Conditions: dose 1.5625-25 µM.
Series [9] concerns K562. As to the kind of experiment: Induction of apoptosis in human K562 cells assessed as late apoptotic cells at 1.5625 to 25 uM incubated for 24 hrs by AnnexinV-FITC/propidium iodide staining based flow cytometric analysis. The class given is functional, cell-based. The settings on record: dose 1.5625-25 µM.

Activity calls are given as the source filed them. No cut-off for these calls is given here. Where a SMILES comes first, the peptide text is derived from it. The star is where a group is joined. X1 = O=C(c1ccccc1-c1c2ccc(=O)cc-2oc2cc(O)ccc12)*

Turning to `CC[C@H](C)[C@H](NC(=O)[C@@H]1CCCN1C(=O)[C@@H](NC(=O)[C@@H](C)N)C(C)C)C(=O)N[C@@H](Cc1ccccc1)C(=O)N[C@@H](CCCCN)C(=O)N[C@@H](Cc1ccccc1)C(=O)N[C@@H](CC(C)C)C(=O)N[C@@H](CC(=O)O)C(=O)N[C@H](C(=O)N[C@@H](CC(C)C)C(=O)N[C@H](C(=O)N[C@H](C(=O)N[C@@H](CC(C)C)C(=O)N[C@@H](Cc1cnc[nH]1)C(=O)N[C@@H](CCCNC(=N)N)C(=O)N[C@H](C(=O)N[C@@H](CCC(N)=O)C(=O)N[C@@H](CCCNC(=N)N)C(=O)N[C@@H](CCCCN)C(=O)N[C@@H](CCCNC(=N)N)C(=O)N[C@@H](CCC(N)=O)C(=O)N[C@@H](CCCCN)C(=O)N[C@@H](CC(C)C)C(=O)N[C@@H](CCSC)C(=O)N1CCC[C@H]1C(=O)O)C(C)C)C(C)C)C(C)C)[C@@H](C)O`, the result in series [1] was Active. Besides, in series [2], the Activity was found to be 44%.

With `CC(C)C[C@H](NC(=O)[C@H](Cc1ccccc1)NC(=O)c1ccccc1-c1c2ccc(=O)cc-2oc2cc(O)ccc12)C(=O)N[C@@H](CC(=O)O)C(=O)N[C@H](C(=O)N[C@@H](CC(C)C)C(=O)N[C@H](C(=O)N[C@H](C(=O)N[C@@H](CC(C)C)C(=O)N[C@@H](Cc1cnc[nH]1)C(=O)N[C@@H](CCCNC(=N)N)C(=O)O)C(C)C)C(C)C)[C@@H](C)O` (X1-FLDTLVVLHR-OH), in [3], the Drug uptake entry is given as “Active”.

One may read the IC50 as the concentration at which inhibition is half-maximal. A higher IC50 goes with weaker potency in that assay. Turning to H-FLDTLVVLHR-OH, the figures for the half-inhibitory concentration (IC50) in series [4] and in series [5] were 30.1 µM and 374 µM, respectively.

Turning to `CSCC[C@H](NC(=O)[C@H](CC(C)C)NC(=O)[C@H](CCCCN)NC(=O)[C@H](CCC(N)=O)NC(=O)[C@H](CCCNC(=N)N)NC(=O)[C@H](CCCCN)NC(=O)[C@H](CCCNC(=N)N)NC(=O)[C@H](CCC(N)=O)NC(=O)[C@@H](NC(=O)[C@H](CCCNC(=N)N)NC(=O)[C@H](Cc1cnc[nH]1)NC(=O)[C@H](CC(C)C)NC(=O)[C@@H](NC(=O)[C@@H](NC(=O)[C@H](CC(C)C)NC(=O)[C@@H](NC(=O)[C@H](CC(=O)O)NC(=O)[C@H](CC(C)C)NC(=O)[C@H](Cc1ccccc1)NC(=O)c1ccccc1-c1c2ccc(=O)cc-2oc2cc(O)ccc12)[C@@H](C)O)C(C)C)C(C)C)C(C)C)C(=O)N1CCC[C@H]1C(=O)O` (X1-FLDTLVVLHRVQRKRQKLMP-OH), the Drug uptake entry in [6], in series [7] and in series [3] was “Active” each time.

For H-FLDTLVVLHRVQRKRQKLMP-OH, the result in [8] and in series [9] was Active. Moreover, the Activity in series [2] amounted to 36%. Moreover, the IC50 in [4] amounted to 5.58 µM; in [5] it was 1390 µM.

Values taken from ChEMBL document CHEMBL5104106, “Designed hybrid anticancer nuclear-localized peptide inhibits aggressive cancer cell proliferation” (RSC Med Chem, 2022).
